From patent US20250075278A1, “EPIGENTIC REGULATION AND CO-TARGETING APPROACHES OF PSMA IN PROSTRATE CANCER” (Fred Hutchinson Cancer Center, priority 2023, published 2025)
Entries after “also recorded” stand apart in the source; their conditions may differ.

Legend:
[1] = test system: LuCaP 35CR xenografts; experiment: PSMA IHC of LuCaP 35CR PDX tumors grown in treated mice; format: in vivo; settings: LuCaP 35CR PDX in castrated CB17SCID mice, 75 mg/kg/day, 21 days, vs 30% Captisol control
Procedure: In vivo experiments. All surgical procedures were performed under isoflurane anesthesia. LuCaP 35CR tumors (1 mm3) were surgically implanted s.c. into castrated male CB17SCID mice (The Jackson Laboratory) (59). When tumors reached a volume between 150 mm3 and 200 mm3, mice were administered CUDC-907 (Curis Inc.), a combined pan-HDAC/PI3K inhibitor dissolved in 30% captisol (Thermo Fisher Scientific). Treated mice received 75 mg/kg/day for 5 days, followed by 2 days off treatment, repeated for a total of 21 days or until the diameter of the tumor reached 2 cm. The same volume of 30% captisol, in the same manner as described above, was used to treat the vehicle group. […]
IHC staining. […] Immunocomplexes were detected using PV poly-HRP anti-mouse IgG (Leica Microsystems, PV6114) with DAB as the chromogen. […] Immunocomplexes were detected using the Biotin XX Tyramide SuperBoost kit (Invitrogen, B40931) per manufacturer's protocol with DAB as the chromogen. […] Immunocomplexes were detected using Tyramide Signal Amplification system from Thermo Fisher Scientific. […] Membranous PSMA expression was scored in a blinded manner by 2 pathologists, whereby the optical density level (“0” for no brown color, “1” for faint and fine brown chromogen deposition, and “2” for prominent chromogen deposition) was multiplied by the percentage of cells at each staining level, resulting in a total score range of 0-200. […]

[2] = test system: DU145, LAPC4, and LuCaP 35CR CL; experiment: PSMA protein expression in cell line models treated with epigenetic modifiers (flow cytometry and fluorescence immunocytochemistry); format: cell-based; settings: for PSMA expression after HDACi treatment: in vitro and in vivo
Procedure: Cell lines and in vitro experiments. […] All drugs were diluted in DMSO.
To this end, 3 cell line models (DU145, LAPC4, and LuCaP 35CR CL) were treated with the DNMTi decitabine and pan-HDACi (panobinostat, CUDC-907, vorinostat) and applied 2 orthogonal approaches (flow cytometry and fluorescence immunocytochemistry) and 2 separate monoclonal antibodies (3E6 and LNI-17) to measure PSMA protein expression.

| Compound | PSMA expression in tumors (IHC, PSMA-positive cells) [1] | PSMA expression after HDACi treatment [2] | PSMA re-expression (density plot, FIG. 5H) ([2]; 10 μM, cell line not stated) |
| --- | --- | --- | --- |
| COc1ccc(-c2nc(N3CCOCC3)c3sc(CN(C)c4ncc(C(=O)NO)cn4)cc3n2)cn1 [CUDC-907] | significantly increased PSMA expression; also recorded: enhanced PSMA expression | significant upregulation of PSMA expression | – |
| O=C(CCCCCCC(=O)Nc1ccccc1)NO [vorinostat] | – | significant upregulation of PSMA expression | – |
| O=C(CNc1cccc2c1C(=O)N(C1CCC(=O)NC1=O)C2=O)NCCCOc1ccc(NC(=O)c2ccc(CN(C(=O)c3ccc4c(c3)OCC(=O)N4)C3CC3)cc2)nc1 (stereo not shown) [MS159] | – | – | PSMA re-expression |
